This note sets out measurements from ChEMBL document CHEMBL1146877, “D609 blocks cell survival and induces apoptosis in neural stem cells” (Bioorg Med Chem Lett, 2006).

The structures appear in SMILES notation. Calls of active or inactive are those of the source. The calls are words filed in the database; no cut-off is given here.

Common to all, as to type: functional, cell-based
Conditions in all cases: Rattus norvegicus

The test system of test [1] is NSC. Description: Induction of necrosis in NSC cells assessed as lactate dehydrogenase release at 56.29 uM within 72 hrs relative to control.
For test [2], the system named is NSC. Description: Decrease in viability of NSC cells at 37.53 uM for 48 hrs in presence of bFGF.
For test [3], the system named is NSC. Kind of test: Decrease in viability of NSC cells at 56.29 uM for 72 hrs in presence of bFGF.
Test [4] deals with NSC. Description: Induction of apoptosis in NSC cells by TUNEL assay.
Test [5] concerns NSC. Kind of test: Decrease in viability of NSC cells at 18.76 uM for 24 hrs in presence of bFGF.
The test system of test [6] is NSC. Kind of test: Inhibition of reactive oxygen species accumulation in NSC cells relative to control.

For the compound `S=C(S)OC1CC2CC1C1CCCC21` (stereo unspecified), the result in test [1] was inactive. Besides, the result in test [2], in test [3], in test [4], in test [5] and in test [6] was Active.
